Assay results: patent publication US6084081A, “Lewis X derivatives” (Daikin Industries, Ltd., priority 1996, dated 2000)

Key:
[1] = target: T1, P-selectin (Homo sapiens, UniProt P16109); settings: relative to sugar chain (3); cited from earlier work
T1 sequence (P16109 42-830): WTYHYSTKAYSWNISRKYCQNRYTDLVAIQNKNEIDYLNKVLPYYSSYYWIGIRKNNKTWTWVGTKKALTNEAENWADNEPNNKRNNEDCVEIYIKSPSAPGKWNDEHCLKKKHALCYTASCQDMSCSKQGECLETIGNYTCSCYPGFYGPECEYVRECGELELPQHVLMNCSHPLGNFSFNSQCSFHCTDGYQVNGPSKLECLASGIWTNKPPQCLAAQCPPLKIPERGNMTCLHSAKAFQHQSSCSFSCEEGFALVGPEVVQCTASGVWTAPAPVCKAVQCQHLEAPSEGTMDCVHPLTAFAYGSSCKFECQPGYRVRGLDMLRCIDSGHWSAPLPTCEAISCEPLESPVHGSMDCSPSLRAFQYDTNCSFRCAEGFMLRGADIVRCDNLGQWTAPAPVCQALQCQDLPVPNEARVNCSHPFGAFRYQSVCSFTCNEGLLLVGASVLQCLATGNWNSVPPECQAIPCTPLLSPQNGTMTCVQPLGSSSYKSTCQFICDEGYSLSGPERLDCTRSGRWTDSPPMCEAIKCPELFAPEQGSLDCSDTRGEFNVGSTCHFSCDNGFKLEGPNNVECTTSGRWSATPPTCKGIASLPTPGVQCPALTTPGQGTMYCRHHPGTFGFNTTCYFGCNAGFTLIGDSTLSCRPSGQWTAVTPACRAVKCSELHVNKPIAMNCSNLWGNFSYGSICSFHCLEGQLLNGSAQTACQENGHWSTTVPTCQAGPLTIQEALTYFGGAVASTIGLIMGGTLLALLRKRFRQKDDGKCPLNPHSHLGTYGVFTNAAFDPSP

[2] = target: T2, α-fucosidase (Bos taurus, UniProt Q2KIM0); test: Metabolic stability test: substrate decomposition reaction by α-fucosidase (remaining substrate by TLC); assay type: in vitro ADME
T2 construct: purchased Wako Pure Chemical Industries, Ltd
T2 sequence (Q2KIM0 23-468): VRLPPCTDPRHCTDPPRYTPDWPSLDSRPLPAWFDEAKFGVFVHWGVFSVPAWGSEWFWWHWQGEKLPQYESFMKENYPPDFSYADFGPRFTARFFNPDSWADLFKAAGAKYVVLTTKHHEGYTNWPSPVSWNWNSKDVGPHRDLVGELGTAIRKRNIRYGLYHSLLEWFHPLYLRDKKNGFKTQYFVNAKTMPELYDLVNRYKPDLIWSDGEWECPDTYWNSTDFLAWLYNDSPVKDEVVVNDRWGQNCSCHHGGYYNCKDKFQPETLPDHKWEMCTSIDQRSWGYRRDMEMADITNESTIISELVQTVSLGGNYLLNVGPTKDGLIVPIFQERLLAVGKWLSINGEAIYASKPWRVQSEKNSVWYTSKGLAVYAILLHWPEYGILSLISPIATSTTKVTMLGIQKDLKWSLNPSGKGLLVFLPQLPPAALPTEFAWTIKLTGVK
Experimental: The TLC plate was developed until the reaction solution front moved 2 cm (developing solvent; n-butanol:acetic acid:water=8:5:4). After immersion in phosphomolybdic acid.phosphoric acid.sulfonic acid mixed aqueous solution, the plate was heated to develop colors and the amount of the remaining substrate was measured.

[3] = system: acute pulmonary inflammation induced using a cobra venom factor; settings: rats, Mulligan et al., Nature 364, 149 (1993); cited from earlier work

1-deoxy sialyl Lewis X [sugar chain (4)]
inhibitory activity against P-selectin, times as potent as sugar chain (3) [1]: about 20 times

CCCCCCCCCCCCCC=CC(O)C(COC1OC(CO)C(OC2OC(CO)C(O)C(OC3OC(CF)C(OC4OC(CO)C(O)C(OC5(C(=O)O)CC(O)C(NC(C)=O)C(C(O)C(O)CO)O5)C4O)C(OC4OC(C)C(O)C(O)C4O)C3NC(C)=O)C2O)C(O)C1O)NC(=O)CCCCCCCCCCCCCCCCC [Compound 24, O-(5-Acetamide-3,5-dideoxy-D-glycero-α-D-galacto-2-nonulopyranosylonic acid)-(2→3)-O-β-D-glucopyranosyl-(1→4)-O-[α-L-fucopyranosyl-(1→3)]-O-(2-acetamide-2,6-dideoxy-6-fluoro-β-D-galactopyranosyl)-(1→3)-O-β-D-galactopyranosyl)-(1→4)-β-D-glucopyranosyl-(1→1)(2S, 3R, 4E)-2-octadecaneamide-4-octadecene-1,3-diol]
stability against decomposition by α-fucosidase (in words) ([2]; in the presence of α-fucosidase): more strongly resists the decomposition by α-fucosidase than a natural Ganglioside
Remaining Syalyl Lewis X (%) ([2]; α-fucosidase, time 0 min): 100%

sialyl Lewis X sugar chain [sialyl Lewis X sugar chain (3)]
effect on acute pulmonary inflammation (in words) [3]: ameliorates acute pulmonary inflammation
